Data on ten molecules can be found in US9034655B2, “Highly water-soluble, cationic luminescent labels” (SETA BioMedicals, LLC, priority 2006, dated 2015).

The nature of data set [1]: Fluorescence (luminescent) lifetime of dyes and conjugates. The data set is classed as physicochemical. The note with it: for luminescent lifetime (τ): solvent not stated. The text has this:
Typical assays based on the measurement of the fluorescence lifetime as a parameter include for example FRET (fluorescence resonance energy transfer) assays. The binding between a fluorescent donor labeled species (typically an antigen, or a ligand) and a fluorescent acceptor labeled species may be accompanied by a change in the intensity and/or the fluorescence lifetime. The lifetime can be measured using intensity-(Time corrlated single photon counting TCSPC) or phase-modulation-based methods (J. R. LAKOWICZ, PRINCIPLES OF FLUORESCENCE SPECTROSCOPY (2nd Ed. 1999)).

Data set [2] can be described thus: Fluorescence quantum yield (QY). The data set is classed as physicochemical.
A short description of data set [3]: Absorption and emission maxima (spectral properties). The class given is physicochemical. The text has this: The synthesis of representative dyes is provided in the Examples Section. The structures, absorption and emission data as well as the luminescent lifetime in different solvents of specific dyes are given in Table 1.
For data set [4] the following is noted: cited from earlier work.

By melting point is commonly meant the temperature of the solid-liquid transition.

In the case of `CN(C)c1ccc2c3c(cccc13)C(=O)N(c1ccccc1)C2=O` [Dye 1, phenylimide of 4-dimethyl aminonaphthalic acid], in data set [1] (Ethanol), the “Lifetime [ns]” value is reported as <<1 ns and the lifetime in ethanol is recorded as below 1 ns. For the same molecule, the “lifetime in water compared with ethanol” value in data set [1] (Water) is given as “even further reduced”. The “(QY [%])” value in data set [2] (Ethanol) was 0.5%. In data set [2] (Water), the “Q.Y. in water compared with ethanol” value is “even further reduced”.
Take `CN1C[N+](C)(C)Cc2cc3c4c(cccc4c21)C(=O)N(c1ccc(C(=O)O)cc1)C3=O.[Cl-]` [Dye 3, 5-(4-carboxyphenyl)-9,9,11-trimethyl-4,6-dioxo-5,6,8,9,10,11-hexahydro-4H-isoquino[4,5-g,h]quinazolin-9-ium chloride]: in data set [1] (Water), the lifetime in water was 9.3 ns. The “overall decrease in fluorescence lifetime” value in data set [1] (free dye in water vs IgG conjugate at D/P about 8) was found to be 10%. Besides, the “lifetime labeled to IgG” value in data set [1] (labeled to IgG at a D/P ratio of about 1) worked out at 8.9 ns; in data set [1] (labeled to IgG, D/P ratio of about 8), 8.4 ns.
As to `CN1C[N+](C)(C)Cc2cc3c4c(cccc4c21)C(=O)N(c1ccc(C(=O)ON2C(=O)CCC2=O)cc1)C3=O` [Dye 3-NHS], the “Lifetime [ns]” value is listed as 8.0 ns in data set [1] (Ethanol (Table 1)) and 9.3 ns in data set [1] (Water (Table 1)). Further, the “λ(abs) [nm]” value amounted to 390 nm in data set [3] (Ethanol) and 404 nm in data set [3] (Water). Further, the “λ(fl) [nm]” value came to 500 nm in data set [3] (Ethanol) and 518 nm in data set [3] (Water).
As for `CN1C[N+](C)(C)Cc2cc3c4c(cccc4c21)C(=O)N(c1ccc(C(=O)O)cc1)C3=O.[Cl-]` [Dye 3a], in data set [1] (Water (Table 1)), the “Lifetime [ns]” value is on record as 9.4 ns. In data set [2] (Water (Table 1)), the “(QY [%])” value turned out to be 72%. Moreover, in data set [3] (Water), the “λ(abs) [nm]” value is reported as 405 nm and the “λ(fl) [nm]” value amounted to 515 nm.
On to `CN1C[N+](C)(C)Cc2c1cc1c3c(cccc23)C(=O)N(CCCCCC(=O)O)C1=O` [Dye 4a], for which the “luminescent lifetime (τ)” value in data set [1] is given as 26 ns.
As to `CN1C[N+](C)(C)Cc2cc3c4c(cccc4c21)C(=O)N(c1ccccc1)C3=O.[Cl-]` [Dye 5, 9,9,11-trimethyl-4,6-dioxo-5-phenyl-5,6,8,9,10,11-hexahydro-4H-isoquino[4,5-g,h]quinazolin-9-ium chloride], the melting point amounted to 235 °C. Further, the “Lifetime [ns]” value in data set [1] (DMF) was 9.0 ns. Also, the “Lifetime [ns]” value in data set [1] (Ethanol) worked out at 8.5 ns. In data set [1] (Ethanol (Table 1)), the “Lifetime [ns]” value is listed as 8.5 ns. The “Lifetime [ns]” value in data set [1] (Water) came out at 9.4 ns. In addition, the “Lifetime [ns]” value in data set [1] (Water (Table 1)) is 9.4 ns. Moreover, in data set [2] (Ethanol), the “(QY [%])” value was found to be 58%. Besides, in data set [2] (Ethanol (Table 1)), the “(QY [%])” value came to 58%. Further, the “(QY [%])” value in data set [2] (Water) is listed as 75%. For the same molecule, in data set [2] (Water (Table 1)), the “(QY [%])” value came to 72%. In addition, in data set [3] (DMF), the “λ(abs) [nm]” value turned out to be 393 nm and the “λ(fl) [nm]” value was determined as 500 nm. Moreover, in data set [3] (Ethanol), the “λ(abs) [nm]” value was 393 nm and the “λ(fl) [nm]” value turned out to be 498 nm. Besides, in data set [3] (Water), the “λ(abs) [nm]” value is recorded as 405 nm and the “λ(fl) [nm]” value stood at 515 nm.
Take `CN1C[N+](C)(C)Cc2c1cc1c3c(cccc23)C(=O)N(c2ccccc2)C1=O` [Dye 6, 8,10,10-trimethyl-4,6-dioxo-5-phenyl-5,6,8,9,10,11-hexahydro-4H-isoquino[5,4-fg]quinazolin-10-ium hexafluorophosphate]: the figures for the “Lifetime [ns]” value in data set [1] (Ethanol (Table 1)) and in data set [1] (Water (Table 1)) were 23.3 ns and 22.9 ns, respectively. Also, the “luminescent lifetime (τ)” value in data set [1] is “around 23 ns”. For the same molecule, in data set [2] (Ethanol (Table 1)), the “(QY [%])” value is listed as 51%. The results for the “λ(abs) [nm]” value in data set [3] (Ethanol) and in data set [3] (Water) were 414 nm and 426 nm, respectively. In addition, the “λ(fl) [nm]” value in data set [3] (Ethanol) is given as 513 nm; in data set [3] (Water) it was 545 nm.
`CCOC(=O)c1c(C)nn2c(=O)c3cccc4c5c(cc(c43)c12)C[N+](C)(C)CN5C.[Cl-]` [Dye 8]: the “Lifetime [ns]” value worked out at 7.8 ns in data set [1] (Ethanol (Table 1)), 5.7 ns in data set [1] (Water (Table 1)) and 6.1 ns in data set [1] (Water + BSA). Moreover, the “(QY [%])” value in data set [2] (Ethanol (Table 1)) amounted to 44%; in data set [2] (Water (Table 1)), 7%. Also, the “λ(abs) [nm]” value is 436 nm in data set [3] (Ethanol), 449 nm in data set [3] (Water) and 449 nm in data set [3] (Water + BSA). Also, the “λ(fl) [nm]” value in data set [3] (Ethanol) amounted to 584 nm; in data set [3] (Water), 600 nm; in data set [3] (Water + BSA) it was 600 nm.
The molecule `CN1C[N+](C)(C)Cc2c1ccc1cc3ccccc3cc21` [Dye 13, 2,2,4-trimethyl-1,2,3,4-tetrahydronaphtho[2,3-f]quinazolin-2-ium hexafluorophosphate] gave a lifetime in water in data set [1] (Water) of 20 ns. In addition, the “Lifetime [ns]” value in data set [1] (Water (Table 1)) is on record as 20.9 ns. Moreover, the entries for the “(QY [%])” value in data set [2] (Ethanol (Table 1)) and in data set [2] (Water (Table 1)) were 30% and 40%, respectively. In addition, the results for the “λ(abs) [nm]” value in data set [3] (Ethanol) and in data set [3] (Water) were 395 nm and 398 nm, respectively. Also, the “λ(fl) [nm]” value in data set [3] (Ethanol) is given as 462 nm; in data set [3] (Water) it was 481 nm.
For fluorescein-isothiocyanate [FITC], in data set [4] (D/P ~ 8, Lakowicz et al. 2004), the “lifetime losses when covalently labeled to proteins” value is given as around 40%. Moreover, in data set [4] (free label), the “lifetime τ” value was 4.0 ns.
